Measurements from ChEMBL document CHEMBL4184213, “Essential structure of orexin 1 receptor antagonist YNT-707, Part II: Drastic effect of the 14-hydroxy group on the orexin 1 receptor antagonistic activity” (Bioorg Med Chem Lett, 2018).

How the values were obtained:
[1] = target: T1, Orexin receptor type 2 (Homo sapiens, UniProt O43614); experiment: Antagonist activity at human OX2R expressed in CHOK1 cells assessed as inhibition of orexin A-induced intracellular Ca2+ release preincubated for 15 mins followed by orexin A addition by Fura 2-AM dye based fluorescence assay; type: functional, cell-based
T1 sequence (O43614 whole entry): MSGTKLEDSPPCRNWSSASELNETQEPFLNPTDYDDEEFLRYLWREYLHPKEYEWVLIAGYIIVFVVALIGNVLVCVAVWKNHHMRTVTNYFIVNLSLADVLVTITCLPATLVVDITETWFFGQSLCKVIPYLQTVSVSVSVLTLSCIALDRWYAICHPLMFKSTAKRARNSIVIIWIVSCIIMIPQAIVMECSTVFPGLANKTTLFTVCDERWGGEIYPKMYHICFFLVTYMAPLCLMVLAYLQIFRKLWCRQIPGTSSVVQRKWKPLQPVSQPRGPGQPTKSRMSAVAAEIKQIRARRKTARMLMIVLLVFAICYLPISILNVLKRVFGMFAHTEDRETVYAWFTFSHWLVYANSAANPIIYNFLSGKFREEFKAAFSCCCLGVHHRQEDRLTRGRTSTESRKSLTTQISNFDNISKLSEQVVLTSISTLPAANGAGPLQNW

[2] = target: T2, Orexin/Hypocretin receptor type 1 (Homo sapiens, UniProt O43613); experiment: Antagonist activity at human OX1R expressed in CHOK1 cells assessed as inhibition of orexin A-induced intracellular Ca2+ release preincubated for 15 mins followed by orexin A addition by Fura 2-AM dye based fluorescence assay; type: functional, cell-based
T2 sequence (O43613 whole entry): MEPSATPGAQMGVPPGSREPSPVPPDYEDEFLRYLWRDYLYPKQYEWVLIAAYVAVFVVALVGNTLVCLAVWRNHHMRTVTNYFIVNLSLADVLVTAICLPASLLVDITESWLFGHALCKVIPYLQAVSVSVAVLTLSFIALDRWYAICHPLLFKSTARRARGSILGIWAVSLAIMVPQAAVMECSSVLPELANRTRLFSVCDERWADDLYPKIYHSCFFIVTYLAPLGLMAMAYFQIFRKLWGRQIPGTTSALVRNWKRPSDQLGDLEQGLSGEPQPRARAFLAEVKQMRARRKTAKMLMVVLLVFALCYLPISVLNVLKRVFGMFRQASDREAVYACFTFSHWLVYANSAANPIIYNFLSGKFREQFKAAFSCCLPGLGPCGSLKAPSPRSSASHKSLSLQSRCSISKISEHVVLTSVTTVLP

COc1ccc2c3c1O[C@H]1[C@@H](N(C)C(=O)/C=C/c4ccoc4)CC[C@H]4[C@@H](C2)N(S(=O)(=O)c2ccccc2)CC[C@@]341
Ki [1]: > 10000 nM
Ki [2]: 187 nM

COc1ccc2c3c1O[C@H]1[C@H](N(C)C(=O)/C=C/c4ccoc4)CC=C4[C@@H](C2)N(S(=O)(=O)c2ccccc2)CC[C@]431
Ki [1]: > 10000 nM
Ki [2]: 2.06 nM

COc1ccc2c3c1O[C@H]1[C@H](N(C)C(=O)/C=C/c4ccoc4)CC[C@H]4[C@@H](C2)N(S(=O)(=O)c2ccccc2)CC[C@@]341
Ki [1]: > 10000 nM
Ki [2]: 1.97 nM

COc1ccc2c3c1O[C@H]1[C@H](N(C)C(=O)/C=C/c4ccoc4)CC[C@@]4(O)[C@@H](C2)N(S(=O)(=O)c2ccccc2)CC[C@]314
Ki [1]: > 10000 nM

COc1ccc2c3c1O[C@H]1[C@@H](N(C)C(=O)/C=C/c4ccoc4)CC=C4[C@@H](C2)N(S(=O)(=O)c2ccccc2)CC[C@]431
Ki [1]: 123 nM
Ki [2]: 17.8 nM

COc1ccc2c3c1O[C@H]1[C@@H](N(C)C(=O)/C=C/c4ccoc4)CC[C@@]4(O)[C@@H](C2)N(S(=O)(=O)c2ccccc2)CC[C@]314
Ki [1]: > 10000 nM
